This experiment concerns C3H10T1/2 cells. Nature of the experiment: C3H assay: differentiation of C3H10T1/2 cells by mSHH, measurement of alkaline phosphatase. The class given is cell-based, mouse. The note with it: Mus musculus, C3H 10T1/2; C3H10T1/2 cells stimulated with mSHH for 72 hours; alkaline phosphatase activity; read-out: IC50 Ranges.
Turning to `Cc1noc(C)c1NC(=O)[C@H]1C[C@@H](S(=O)(=O)N2CCC(c3ccncc3)CC2)C1` [Compound 295, cis-N-(3,5-dimethyl-1,2-oxazol-4-yl)-3-(4-pyridin-4-ylpiperidin-1-yl) sulfonylcyclobutane-1-carboxamide], the IC50 was 1000 to 10000 nM.

For `C[C@@H]1CN(C(=O)N2CC(S(=O)(=O)N3CCC(c4ccc(Cl)cc4)CC3)C2)C[C@H](C)O1` [Compound 393, [3-[4-(4-chlorophenyl)piperidin-1-yl]sulfonylaze-tidin-1-yl]-[(2R,6S)-2,6-dimethylmorpholin-4-yl]methanone], the IC50 was 10 to 100 nM.

With `O=S(=O)(C1CN(c2ncccc2C2CC2)C1)N1CCC(c2c[nH]c3ncccc23)CC1` [Compound 181, 3-[1-[1-(3-cyclopropylpy-ridin-2-yl)azetidin-3-yl]sulfonylpiper-idin-4-yl]-1H-pyrrolo[2,3-b]pyridine], the IC50 was in the range of 10 to 100 nM.

Regarding `CN(C(=O)N1CC(S(=O)(=O)N2CCC(c3c[nH]c4ncccc34)CC2)C1)C(C)(C)C` [Compound 176, N-tert-butyl-N-methyl-3-[4-(1H-pyrrolo[2,3-b]pyridin-3-yl)piperidin-1-yl]sulfonylaze-tidine-1-carboxamide], the IC50 was < 10 nM.

Turning to `COc1ccc(N2CCN(S(=O)(=O)C3CCN(C(=O)OC(C)(C)C)CC3)CC2)cc1` [Compound 227, tert-butyl 4-[4-(4-methoxyphenyl)piperazin-1-yl]sulfonylpiper-idine-1-carboxylate], the IC50 lay within 1000 to 10000 nM.

Turning to `Cc1cc(F)ccc1N(C)C(=O)N1CC(S(=O)(=O)N2CCC(c3coc4cccnc34)CC2)C1` [Compound 399, N-(4-fluoro-2-methyl-phenyl)-3-[(4-furo[3,2-b]pyridin-3-yl-1-piperidyl)sulfonyl]-N-methyl-azetidine-1-carboxamide], the IC50 is 100 to 1000 nM.

For `COc1cccc(N(C)C(=O)N2CC(S(=O)(=O)N3CCC(c4c[nH]c5ncccc45)CC3)C2)c1` [Compound 279, N-(3-methoxyphenyl)-N-methyl-3-[4-(1H-pyrrolo [2,3-b]pyridin-3-yl)piperidin-1-yl]sulfonylaze-tidine-1-carboxamide], the IC50 fell in the range of 1000 to 10000 nM.

On to `CC(C)(C)OC(=O)N1CCC(S(=O)(=O)N2CCC(c3ccccc3)CC2)CC1` [Compound 14, tert-butyl 4-(4-phenylpiperidin-1-yl)sulfonylpiper-idine-1-carboxylate], for which the IC50 was in the range of 100 to 1000 nM.

Turning to `C[C@@H](C(=O)N1CC(S(=O)(=O)N2CCC(c3ccccc3)CC2)C1)N(C)C` [Compound 307, 2-(dimethylamino)-1-[3-(4-phenyl-piperidin-1-yl)sulfonylaze-tidin-1-yl]propan-1-one], the IC50 was in the range of 1000 to 10000 nM.

In the case of `CC(C)[C@H](CO)NC(=O)N1CC(S(=O)(=O)N2CCC(c3ccc(Cl)cc3)CC2)C1` [Compound 321, 3-[4-(4-chlorophenyl)piperidin-1-yl]sulfonyl-N-[(2R)-1-hydroxy-3-methylbutan-2-yl]azetidine-1-carboxamide], the IC50 was in the range of 10 to 100 nM.

In the case of `CC(C)(C)OC(=O)N1CCC(S(=O)(=O)N2CCC(c3ccncc3)CC2)CC1` [Compound 23, tert-butyl 4-(4-pyridin-4-ylpiperidin-1-yl)sulfonylpiper-idine-1-carboxylate], the IC50 fell in the range of 100 to 1000 nM.

For the compound `CN(C(=O)N1CC(S(=O)(=O)N2CCC(c3ccncc3)CC2)C1)C(C)(C)C` [Compound 31, N-tert-butyl-N-methyl-3-(4-pyridin-4-ylpiperidin-1-yl)sulfonylaze-tidine-1-carboxamide], the IC50 lay within 100 to 1000 nM.

For `O=S(=O)(C1CCC1)N1CCC(c2c[nH]c3ncccc23)CC1` [Compound 287, 3-(1-cyclobutylsulfonylpiperidin-4-yl)-1H-pyrrolo[2,3-b]pyridine], the IC50 was in the range of 1000 to 10000 nM.

With `Cc1noc(C)c1NC(=O)N1CC(S(=O)(=O)N2CCC(c3c[nH]c4cccnc34)CC2)C1` [Compound 39, N-(3,5-dimethyl-1,2-oxazol-4-yl)-3-[4-(1H-pyrrolo[3,2-b]pyridin-3-yl)piperidin-1-yl]sulfonylaze-tidine-1-carboxamide], the IC50 was 10 to 100 nM.

As to `COC(=O)N1CC(S(=O)(=O)N2CCC(c3coc4cccnc34)CC2)C1` [Compound 126, methyl 3-(4-furo [3,2-b]pyridin-3-ylpiperidin-1-yl)sulfonylaze-tidine-1-carboxylate], the IC50 lay within 100 to 1000 nM.

Consider `CC(C)NC(=O)N1CC(S(=O)(=O)N2CCC(c3c[nH]c4ncccc34)CC2)C1` [Compound 98, N-propan-2-yl-3-[4-(1H-pyrrolo[2,3-b]pyridin-3-yl)piperidin-1-yl]sulfonylaze-tidine-1-carboxamide], for which the IC50 is 100 to 1000 nM.

As to `O=C(NC1(C(F)(F)F)CC1)N1CC(S(=O)(=O)N2CCC(c3c[nH]c4cnccc34)CC2)C1` [Compound 355, 3-[4-(1H-pyrrolo[2,3-c]pyridin-3-yl)piperidin-1-yl]sulfonyl-N-[1-(trifluoromethyl)cyclopropyl] azetidine-1-carboxamide], the IC50 lay within 1000 to 10000 nM.

For the compound `CN(C(=O)N1CCC(S(=O)(=O)N2CCC(c3ccncc3)CC2)C1)C(C)(C)C` (racemic) [Compound 271, N-tert-butyl-N-methyl-3-(4-pyridin-4-ylpiperidin-1-yl)sulfonylpyrr olidine-1-carboxamide], the IC50 was 100 to 1000 nM.

In the case of `CC(C)(C)C(=O)CN1CC(S(=O)(=O)N2CCC(c3coc4cccnc34)CC2)C1` [Compound 376, 1-[3-(4-furo[3,2-b]pyridin-3-ylpiperidin-1-yl)sulfonylazetidin-1-yl]-3,3-dimethylbutan-2-one], the half-inhibitory concentration (IC50) lay within 10 to 100 nM.

In the case of `CC(C)(C)OC(=O)N1CC(S(=O)(=O)N2CCC(c3ccccc3)CC2)C1` [Compound 301, tert-butyl 3-(4-phenylpiperidin-1-yl)sulfonylaze-tidine-1-carboxylate], the IC50 is 100 to 1000 nM.

As to `CC[C@H](C)OC(=O)N1CC(S(=O)(=O)N2CCC(c3c[nH]c4ncccc34)CC2)C1` [Compound 153, [(2S)-butan-2-yl] 3-[4-(1H-pyrrolo[2,3-b]pyridin-3-yl)piperidin-1-yl]sulfonylaze-tidine-1-carboxylate], the IC50 fell in the range of 10 to 100 nM.

Take `CC(C)(C)OC(=O)N1CC(S(=O)(=O)N2CCC(c3c[nH]c4ccccc34)CC2)C1` [Compound 125, tert-butyl 3-[4-(1H-indol-3-yl)piperidin-1-yl]sulfonylaze-tidine-1-carboxylate]: the IC50 lay in the range of 10 to 100 nM.

Take `CCOc1cccc(N2CC(S(=O)(=O)N3CCC(c4c[nH]c5ncccc45)CC3)C2)n1` [Compound 243, 3-[1-[1-(6-ethoxypyridin-2-yl)azetidin-3-yl]sulfonylpiper-idin-4-yl]-1H-pyrrolo[2,3-b]pyridine]: the IC50 lay in the range of 10 to 100 nM.

`CC(C)N(CC(=O)N1CC(S(=O)(=O)N2CCC(c3coc4cccnc34)CC2)C1)C(C)C` [Compound 330, 2-[di(propan-2-yl)amino]-1-[3-(4-furo[3,2-b]pyridin-3-ylpiperidin-1-yl)sulfonylaze-tidin-1-yl]ethanone]: the IC50 lay in the range of 10 to 100 nM.

Consider `CN(C)CC(C)(C)OC(=O)N1CCC(S(=O)(=O)N2CCC(c3c[nH]c4ncccc34)CC2)C1` (racemic) [Compound 147, [1-(dimethylamino)-2-methylpropan-2-yl]3-[4-(1H-pyrrolo[2,3-b]pyridin-3-yl)piperidin-1-yl]sulfonylpyrr olidine-1-carboxylate], for which the IC50 fell in the range of 10 to 100 nM.

Regarding `CC(C)[C@@H](CO)NC(=O)N1CC(S(=O)(=O)N2CCC(c3coc4cccnc34)CC2)C1` [Compound 373, 3-(4-furo[3,2-b]pyridin-3-ylpiperidin-1-yl)sulfonyl-N-[(2S)-1-hydroxy-3-methylbutan-2-yl]azetidine-1-carboxamide], the IC50 fell in the range of 10 to 100 nM.

With `O=C(NC1(C(F)(F)F)CC1)N1CC(S(=O)(=O)N2CCC(c3nc4ccccc4s3)CC2)C1` [Compound 293, 3-[4-(1,3-benzothiazol-2-yl)piperidin-1-yl]sulfonyl-N-[1-(trifluoromethyl)cyclopropyl] azetidine-1-carboxamide], the IC50 was 10 to 100 nM.

`CC(C)(C)NC(=O)[C@H]1C[C@@H](S(=O)(=O)N2CCC(c3coc4cccnc34)CC2)C1` [Compound 362, cis-N-tert-butyl-3-(4-furo[3,2-b]pyridin-3-ylpiperidin-1-yl) sulfonylcyclobutane-1-carboxamide]: the IC50 lay in the range of 10 to 100 nM.

Regarding `O=S(=O)(C1CN(c2nc(C(F)(F)F)ccc2C(F)(F)F)C1)N1CCC(c2c[nH]c3ncccc23)CC1` [Compound 184, 3-[1-[1-[3,6-bis(trifluoromethyl)pyridin-2-yl]azetidin-3-yl]sulfonylpiper-idin-4-yl]-1H-pyrrolo[2,3-b]pyridine], the IC50 lay in the range of 100 to 1000 nM.

In the case of `O=C(c1ccccn1)N1CC(S(=O)(=O)N2CCC(c3c[nH]c4ncccc34)CC2)C1` [Compound 192, pyridin-2-yl-[3-[4-(1H-pyrrolo[2,3-b]pyridin-3-yl)piperidin-1-yl]sulfonylaze-tidin-1-yl]methanone], the IC50 was 100 to 1000 nM.

Take `Cc1noc(C)c1NC(=O)[C@H]1C[C@H](S(=O)(=O)N2CCC(c3c[nH]c4ncccc34)CC2)C1` [Compound 310, trans-N-(3,5-dimethyl-1,2-oxazol-4-yl)-3-[4-(1H-pyrrolo [2,3-b]pyridin-3-yl)piperidin-1-yl]sulfonylcycl obutane-1-carboxamide]: the IC50 is 100 to 1000 nM.

Regarding `Cc1cc(F)ccc1NC(=O)N1CC(S(=O)(=O)N2CCC(c3c[nH]c4ncccc34)CC2)C1` [Compound 394, N-(4-fluoro-2-methylphenyl)-3-[4-(1H-pyrrolo[2,3-b]pyridin-3-yl)piperidin-1-yl]sulfonylazet idine-1-carboxamide], the IC50 lay in the range of 10 to 100 nM.

With `O=C(NC1(C(F)(F)F)CC1)N1CC(S(=O)(=O)N2CCC(c3coc4cccnc34)CC2)C1` [Compound 139, 3-(4-furo[3,2-b]pyridin-3-ylpiperidin-1-yl)sulfonyl-N-[1-(trifluoromethyl)cyclopropyl] azetidine-1-carboxamide], the IC50 is 10 to 100 nM.

In the case of `CC1CC(c2c[nH]c3ncccc23)CCN1S(=O)(=O)C1CN(C(=O)OC(C)(C)C)C1` (stereo not shown) [Compound 46, tert-butyl 3-[2-methyl-4-(1H-pyrrolo [2,3-b]pyridin-3-yl)piperidin-1-yl]sulfonylaze-tidine-1-carboxylate], the IC50 fell in the range of 1000 to 10000 nM.

Values taken from US10961238B2, “Modulators of hedgehog (Hh) signaling pathway” (E-THERAPEUTICS PLC, priority 2016, dated 2021).
